From US11229623B2 (GlaxoSmithKline Intellectual Property (No.2) Limited, priority 2016, dated 2022)

Target: T1, human TRPV4 (Homo sapiens, UniProt Q9HBA0)
T1 construct: expressed in transfected cells; host or cells: BHK/AC9 cells transduced with BacMam virus
Experiment: FLIPR assay for hTRPV4 expressed in BHK cells: inhibition of Agonist Compound-induced calcium signal
Assay type: cell-based
Conditions: hTRPV4 FLIPR assay; average in at least one set of experimental runs; read-out: average IC50
In short: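 Calcium influx through TRPV4 tracked by Fluo-4 fluorescence on FLIPR. Cells: BHK/AC9 transduced with BacMam-hTRPV4 at MOI 78, 24 h culture post-plating (15,000 cells/well). Dye loading: 2 μM Fluo-4 AM with 500 μM Brilliant Black quencher, 1-1.5 h, room temperature, dark.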

T1 sequence (Q9HBA0 whole entry): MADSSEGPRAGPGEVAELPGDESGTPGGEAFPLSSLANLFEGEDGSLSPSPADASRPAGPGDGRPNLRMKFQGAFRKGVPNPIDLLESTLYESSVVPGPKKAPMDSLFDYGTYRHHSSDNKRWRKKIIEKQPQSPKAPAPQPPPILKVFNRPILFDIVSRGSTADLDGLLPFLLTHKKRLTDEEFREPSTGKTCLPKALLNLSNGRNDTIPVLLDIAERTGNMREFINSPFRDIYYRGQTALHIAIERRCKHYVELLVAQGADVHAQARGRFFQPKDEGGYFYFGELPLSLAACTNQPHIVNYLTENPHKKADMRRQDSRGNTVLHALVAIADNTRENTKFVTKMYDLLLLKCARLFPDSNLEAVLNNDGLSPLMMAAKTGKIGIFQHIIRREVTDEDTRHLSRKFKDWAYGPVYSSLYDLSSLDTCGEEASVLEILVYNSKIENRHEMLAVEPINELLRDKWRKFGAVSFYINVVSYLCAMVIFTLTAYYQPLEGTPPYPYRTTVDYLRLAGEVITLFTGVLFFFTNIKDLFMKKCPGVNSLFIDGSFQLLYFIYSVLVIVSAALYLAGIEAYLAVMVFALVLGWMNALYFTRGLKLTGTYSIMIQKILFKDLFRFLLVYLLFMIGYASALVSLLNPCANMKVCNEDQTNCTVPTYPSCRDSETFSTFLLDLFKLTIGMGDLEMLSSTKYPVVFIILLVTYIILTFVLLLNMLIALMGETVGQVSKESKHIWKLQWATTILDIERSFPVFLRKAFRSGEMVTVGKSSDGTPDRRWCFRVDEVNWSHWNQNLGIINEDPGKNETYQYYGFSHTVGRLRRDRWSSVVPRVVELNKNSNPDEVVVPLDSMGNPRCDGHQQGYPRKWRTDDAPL

IC50	SMILES
0.04 µM	C[C@H](O)[C@@]1(O)CN(S(=O)(=O)c2ccc(C(F)(F)F)cc2C#N)C[C@@H]1Oc1ccc(C#N)c(F)c1 [Example 194, 4-(((3S,4S)-1-((2-cyano-4-(trifluoromethyl)phenyl)sulfonyl)-4-hydroxy-4-((S)-1-hydroxyethyl)pyrrolidin-3-yl)oxy)-2-fluorobenzonitrile]

Same assay, conditions: hTRPV4 in BHK/AC9 cells, FLIPR calcium signal, agonist at EC80; reported as range class; read-out: IC50

SMILES	IC50
Cn1ncc(Cl)c1S(=O)(=O)N1C[C@H](Oc2ccc(C#N)c(F)c2)[C@](O)(CO)C1 [Example 89, 4-(((3S,4R)-1-((4-chloro-1-methyl-1H-pyrazol-5-yl)sulfonyl)-4-hydroxy-4-(hydroxymethyl)pyrrolidin-3-yl)oxy)-2-fluorobenzonitrile]	0.01 to 0.1 µM
CC(C)Oc1cc(C#N)ccc1O[C@H]1CN(S(=O)(=O)c2ccc(C(F)(F)F)cc2C#N)C[C@@]1(O)CO [Example 44, 2-(((3R,4S)-4-(4-cyano-2-isopropoxy-phenoxy)-3-hydroxy-3-(hydroxymethyl)pyrrolidin-1-yl)sulfonyl)-5-(trifluoromethyl)benzonitrile]	0.0001 to 0.01 µM
N#Cc1ccc(O[C@H]2CN(S(=O)(=O)c3ccc(Cl)c(OC(F)(F)F)c3)C[C@@]2(O)CO)cc1F [Example 129, 4-(((3S,4R)-1-((4-chloro-3-(trifluoromethoxy)phenyl)sulfonyl)-4-hydroxy-4-(hydroxymethyl)pyrrolidin-3-yl)oxy)-2-fluorobenzonitrile]	0.01 to 0.1 µM
Cc1ccc(S(=O)(=O)N2C[C@H](Oc3ccc(C#N)nc3)[C@](O)(CO)C2)c(Cl)c1 [Example 75, 5-(((3S,4R)-1-((2-chloro-4-methylphenyl)sulfonyl)-4-hydroxy-4-(hydroxymethyl)pyrrolidin-3-yl)oxy)picolinonitrile]	0.01 to 0.1 µM
N#Cc1cc(C(F)(F)F)ccc1S(=O)(=O)N1C[C@H](Oc2ccc(OC(F)(F)F)cc2)[C@](O)(CO)C1 [Example 50, 2-(((3R,4S)-3-hydroxy-3-(hydroxymethyl)-4-(4-(trifluoromethoxy)phenoxy)pyrrolidin-1-yl)sulfonyl)-5-(trifluoromethyl)benzonitrile]	0.0001 to 0.01 µM
N#Cc1ccc(O[C@H]2CN(S(=O)(=O)c3ccc(C(F)(F)F)cc3Cl)C[C@@]2(O)CO)cn1 [Example 74, 5-(((3S,4R)-1-((2-chloro-4-(trifluoromethyl)phenyl)sulfonyl)-4-hydroxy-4-(hydroxymethyl)pyrrolidin-3-yl)oxy)picolinonitrile]	0.01 to 0.1 µM
N#Cc1cc(C(F)(F)F)ccc1S(=O)(=O)N1C[C@H](Oc2cnc(C(F)(F)F)nc2)[C@](O)(CO)C1 [Example 55, 2-(((3R,4S)-3-hydroxy-3-(hydroxymethyl)-4-((2-(trifluoromethyl)pyrimidin-5-yl)oxy)pyrrolidin-1-yl)sulfonyl)-5-(trifluoromethyl)benzonitrile]	0.01 to 0.1 µM
N#Cc1ccc(O[C@H]2CN(S(=O)(=O)c3ccc(Cl)cc3)C[C@@]2(O)CO)cc1F [Example 101, 4-(((3S,4R)-1-((4-chlorophenyl)sulfonyl)-4-hydroxy-4-(hydroxymethyl)pyrrolidin-3-yl)oxy)-2-fluorobenzonitrile]	0.01 to 0.1 µM
COc1ccc(S(=O)(=O)N2C[C@H](Oc3ccc(C#N)c(F)c3)[C@](O)(CO)C2)c(Br)c1 [Example 64, 4-(((3S,4R)-1-((2-bromo-4-methoxyphenyl)sulfonyl)-4-hydroxy-4-(hydroxymethyl)pyrrolidin-3-yl)oxy)-2-fluorobenzonitrile]	0.01 to 0.1 µM
N#Cc1cc(C(F)(F)F)ccc1S(=O)(=O)N1C[C@H](Oc2ccc(C(F)(F)F)cc2)[C@](O)(CO)C1 [Example 37, 2-(((3R,4S)-3-hydroxy-3-(hydroxymethyl)-4-(4-(trifluoromethyl)phenoxy)pyrrolidin-1-yl)sulfonyl)-5-(trifluoromethyl)benzonitrile]	0.0001 to 0.01 µM
N#Cc1ccc(O[C@H]2CN(S(=O)(=O)c3c(Cl)cc(C(F)(F)F)cc3Cl)C[C@@]2(O)CO)cc1F [Example 96, 4-(((3S,4R)-1-((2,6-dichloro-4-(trifluoromethyl)phenyl)sulfonyl)-4-hydroxy-4-(hydroxymethyl)pyrrolidin-3-yl)oxy)-2-fluorobenzonitrile]	0.01 to 0.1 µM
N#Cc1ccc(S(=O)(=O)N2C[C@H](Oc3ccc(C#N)c(F)c3)[C@](O)(CO)C2)cn1 [Example 79, 5-(((3R,4S)-4-(4-cyano-3-fluorophenoxy)-3-hydroxy-3-(hydroxymethyl)pyrrolidin-1-yl)sulfonyl)picolinonitrile]	0.01 to 0.1 µM
N#Cc1ccc(S(=O)(=O)N2C[C@H](Oc3ccc(C#N)c(F)c3)[C@](O)(CO)C2)cc1 [Example 71, 4-(((3S,4R)-1-((4-cyanophenyl)sulfonyl)-4-hydroxy-4-(hydroxymethyl)pyrrolidin-3-yl)oxy)-2-fluorobenzonitrile]	0.01 to 0.1 µM
N#Cc1ccc(O[C@H]2CN(S(=O)(=O)c3ccc(I)cc3C#N)C[C@@]2(O)CO)cc1F [Example 114, 4-(((3S,4R)-1-((2-cyano-4-iodophenyl)sulfonyl)-4-hydroxy-4-(hydroxymethyl)pyrrolidin-3-yl)oxy)-2-fluorobenzonitrile]	0.0001 to 0.01 µM

Results, then the compound that gave them:

IC50	SMILES
0.1 to 1 µM	N#Cc1ccc(O[C@H]2CN(S(=O)(=O)c3ccc(Cl)cn3)C[C@]2(O)CO)cc1F [Example 136, 4-(((3S,4S)-1-((5-chloropyridin-2-yl)sulfonyl)-4-hydroxy-4-(hydroxymethyl)pyrrolidin-3-yl)oxy)-2-fluorobenzonitrile]
0.01 to 0.1 µM	N#Cc1ccc(O[C@H]2CN(S(=O)(=O)c3ccc(C(F)F)cn3)C[C@@]2(O)CN)cc1F [Example 244, 4-(((3S,4S)-4-(aminomethyl)-1-((5-(difluoromethyl)pyridin-2-yl)sulfonyl)-4-hydroxpyrrolidin-3-yl)oxy)-2-fluorobenzonitrile]
0.01 to 0.1 µM	C[C@H](O)[C@@]1(O)CN(S(=O)(=O)c2ccc(C(F)(F)F)cc2C#N)C[C@@H]1Oc1ccc(C#N)c(F)c1 [Example 194, 4-(((3S,4S)-1-((2-cyano-4-(trifluoromethyl)phenyl)sulfonyl)-4-hydroxy-4-((S)-1-hydroxyethyl)pyrrolidin-3-yl)oxy)-2-fluorobenzonitrile]
0.0001 to 0.01 µM	N#Cc1ccc(O[C@H]2CN(S(=O)(=O)c3ccc(Cl)cc3C#N)C[C@@]23CNCCO3)cc1F [compound 253]
0.01 to 0.1 µM	CC(C)(O)[C@]1(O)CN(S(=O)(=O)c2ccc(Cl)cn2)C[C@@H]1Oc1ccc(C#N)c(F)c1 [Example 214, 4-(((3S,4S)-1-((5-chloropyridin-2-yl)sulfonyl)-4-hydroxy-4-(2-hydroxypropan-2-yl)pyrrolidin-3-yl)oxy)-2-fluorobenzonitrile]
0.01 to 0.1 µM	N#Cc1ccc(O[C@H]2CN(S(=O)(=O)c3ccc(I)cn3)C[C@@]2(O)CO)cc1F [Example 130, 2-fluoro-4-(((3S,4R)-4-hydroxy-4-(hydroxymethyl)-1-((5-iodopyridin-2-yl)sulfonyl)pyrrolidin-3-yl)oxy)benzonitrile]
0.01 to 0.1 µM	N#Cc1cc(OCC(F)(F)F)c(O[C@H]2CN(S(=O)(=O)c3ccccc3)C[C@@]2(O)CO)cc1F [Example 176, 2-fluoro-4-(((3S,4R)-4-hydroxy-4-(hydroxymethyl)-1-(phenylsulfonyl)pyrrolidin-3-yl)oxy)-5-(2,2,2-trifluoroethoxy) benzonitrile]
0.01 to 0.1 µM	CC(C)C[C@H](O)[C@]1(O)CN(S(=O)(=O)c2ccc(Cl)cn2)C[C@@H]1Oc1ccc(C#N)c(F)c1 [Example 192, 4-(((3S,4R)-1-((5-chloropyridin-2-yl)sulfonyl)-4-hydroxy-4-((S)-1-hydroxy-3-methylbutyl)pyrrolidin-3-yl)oxy)-2-fluorobenzonitrile]
0.01 to 0.1 µM	N#Cc1ccc(S(=O)(=O)N2C[C@H](Oc3ccc(C#N)c(F)c3)[C@](O)(CN)C2)cn1 [Example 243, 5-(((3S,4S)-3-(aminomethyl)-4-(4-cyano-3-fluorophenoxy)-3-hydroxpyrrolidin-1-yl)sulfonyl) picolinonitrile, 2,2,2-trifluoroacetate]
0.0001 to 0.01 µM	C#Cc1cc(C(F)(F)F)ccc1S(=O)(=O)N1C[C@H](Oc2ccc(C#N)c(F)c2)[C@](O)(CO)C1 [Example 225, 4-(((3S,4R)-1-((2-ethynyl-4-(trifluoromethyl)phenyl)sulfonyl)-4-hydroxy-4-(hydroxymethyl)pyrrolidin-3-yl)oxy)-2-fluorobenzonitrile]
0.0001 to 0.01 µM	CC(C)C[C@@H](O)[C@]1(O)CN(S(=O)(=O)c2ccc(Cl)cn2)C[C@@H]1Oc1ccc(C#N)c(F)c1 [Example 197, 4-(((3S,4R)-1-((5-chloropyridin-2-yl)sulfonyl)-4-hydroxy-4-((R)-1-hydroxy-3-methylbutyl)pyrrolidin-3-yl)oxy)-2-fluorobenzonitrile]
0.01 to 0.1 µM	C[C@H](N)[C@]1(O)CN(S(=O)(=O)c2ccc(Cl)cn2)C[C@@H]1Oc1ccc(C#N)c(F)c1 [Example 257, 4-(((3S,4R)-4-((S)-1-aminoethyl)-1-((5-chloropyridin-2-yl)sulfonyl)-4-hydroxypyrrolidin-3-yl)oxy)-2-fluorobenzonitrile, 2,2,2-trifluoroacetate]
0.0001 to 0.01 µM	N#Cc1cc(OCC(F)(F)F)c(O[C@H]2CN(S(=O)(=O)c3ccc(C(F)(F)F)cc3C#N)C[C@@]2(O)CO)cc1F [Example 157, 4-(((3S,4R)-1-((2-cyano-4-(trifluoromethyl)phenyl)sulfonyl)-4-hydroxy-4-(hydroxymethyl)pyrrolidin-3-yl)oxy)-2-fluoro-5-(2,2,2-trifluoroethoxy)benzonitrile]
0.01 to 0.1 µM	N#Cc1ccc(O[C@H]2CN(S(=O)(=O)c3ccc(Cl)cn3)C[C@@]2(O)CO)c(OCC(F)(F)F)c1 [Example 186, 4-(((3S,4R)-1-((5-chloropyridin-2-yl)sulfonyl)-4-hydroxy-4-(hydroxymethyl)pyrrolidin-3-yl)oxy)-3-(2,2,2-trifluoroethoxy) benzonitrile]
0.0001 to 0.01 µM	N#Cc1ccc(S(=O)(=O)N2C[C@H](Oc3cc(F)c(C#N)cc3OCC(F)(F)F)[C@](O)(CO)C2)cc1 [Example 178, 4-(((3S,4R)-1-((4-cyanophenyl)sulfonyl)-4-hydroxy-4-(hydroxymethyl)pyrrolidin-3-yl)oxy)-2-fluoro-5-(2,2,2-trifluoroethoxy) benzonitrile]
